Reference: patent publication US8815935B2, “Inhibitors of protein prenyltransferases” (The Regents of the University of California, priority 2008, dated 2014)

Experiments:
[1] = target: GGTase I (RhoA as substrate) (Homo sapiens, UniProt P49354+P53609); experiment: GGTase I filter-binding assay, RhoA as substrate (library screens); format: biochemical; settings: compound 50 μM, DMSO = 100%, smaller = better inhibition
Description: (§1) The pilot library was screened for inhibitors of protein geranylgeranyltransferase type I. Protein prenyltransferase assays were carried out by using filter binding. Two different substrates, RhoA and K-Ras4B, were used for the assay. RhoA ends with the CaaL motif and is an exclusive substrate for GGTase I, while K-Ras4B ends with the CaaX motif and is modified by both GGTase I and FTase.
(§2) In the assay, a fixed concentration of 100 μM was used and the results are plotted for the inhibition of RhoA (vertical axis) as well as for K-Ras4B (horizontal axis). […] They are 2,6-diaryl-N-tosyl-1,2,5,6-tetrahydropyridine-3-carboxylic acids, except P2-D5 that is missing an aryl substituent at C2.
The % activity of GGTase I was determined as follows: a working solution that contained each compound in DMSO at the concentration of 1 mM was prepared. The working solution was added to GGTase I reaction mixture so that the final concentration of the compound is 50 μM. GGTase I activity was assayed by incubating [^3H]GGPP with K-Ras4B or RhoA protein in the presence of GGTase I and examining radioactivity incorporated into the substrate protein by spotting onto a filter paper. After washing with TCA, ethanol and acetone, the radioactivity retained on the filter was determined by the use of a scintillation counter. GGTase I activity in the presence of DMSO was taken as a 100% value and the activity in the presence of the compound was shown as percent activity compared with the 100% value. […] For 6-aryl-4-mercapto-N-sulfonyl-piperidine-3-carboxylic acid 11 the 4-mercapto substituent appeared critical to endowing GGTase inhibitory activity. […] 4-Chlorobenzylthio substituent was the next best; 12 compounds out of 21 containing the 4-chlorobenzylthio moiety were active. […]
A collection of 138 heterocycles was screened for their ability to inhibit the activity of human GGTase-I to geranylgeranylate K-Ras4B or RhoA. […] After 30 min, the degree of incorporation of tritiated geranylgeranyl groups was measured using a scintillation counter.

[2] = target: GGTase I (K-Ras4B as substrate) (Homo sapiens, UniProt P49354+P53609); experiment: GGTase I filter-binding assay, K-Ras4B as substrate (library screens); format: biochemical; settings: compound 50 μM; DMSO = 100%; smaller = better inhibition; 50 µM
Description: as §1, §2
The % activity of GGTase I was determined as follows: a working solution that contained each compound in DMSO at the concentration of 1 mM was prepared. The working solution was added to GGTase I reaction mixture so that the final concentration of the compound is 50 μM. GGTase I activity was assayed by incubating [^3H]GGPP with K-Ras4B or RhoA protein in the presence of GGTase I and examining radioactivity incorporated into the substrate protein by spotting onto a filter paper. After washing with TCA, ethanol and acetone, the radioactivity retained on the filter was determined by the use of a scintillation counter. GGTase I activity in the presence of DMSO was taken as a 100% value and the activity in the presence of the compound was shown as percent activity compared with the 100% value. […] For 6-aryl-4-mercapto-N-sulfonyl-piperidine-3-carboxylic acid 11 the 4-mercapto substituent appeared critical to endowing GGTase inhibitory activity. […] 4-Chlorobenzylthio substituent was the next best; 12 compounds out of 21 containing the 4-chlorobenzylthio moiety were active. 4-Benzylthio substituent was also good; 7 piperidines out of 21 bearing 4-benzylthio group were active. […] 19 imines (C15>C12=C41>C40>C01=C11>C05=C10=C30=C35=C37=C38>C02, C03, C04, C06, C39=C43) out of 21 appeared in the GGTIs. […] This corresponds to 47 6-aryl-4-mercapto-N-sulfonyl-piperidine-3-carboxylic acids out of 357 compounds.
A collection of 138 heterocycles was screened for their ability to inhibit the activity of human GGTase-I to geranylgeranylate K-Ras4B or RhoA. Purified GGTase-I was incubated with its substrate protein K-Ras4B or RhoA, [^3H]GGPP, and the 138 compounds. After 30 min, the degree of incorporation of tritiated geranylgeranyl groups was measured using a scintillation counter.

## Cc1ccccc1S(=O)(=O)N1C(c2ccc(Cl)cc2)CC=C(C(=O)O)[C@@H]1c1ccccc1 (some centres unmarked) [drawing 39]
[1]
  % activity of GGTase I for RhoA in the presence of the compound: 12.4%
[2]
  % activity of GGTase I for K-Ras4B in the presence of the compound: 15.6%
